The record followed here is ChEMBL document CHEMBL1667756, “Design, synthesis and antibacterial activity of 3-methylenepyrrolidine formyl hydroxyamino derivatives as novel peptide deformylase inhibitors” (2011).

In brackets after ≈: the same amount, converted by molar mass. A value given as a limit tells only on which side of the number the result lay.

Common to all, as to format: functional
The test system of one assay is Moraxella catarrhalis. The assay is described as follows: Antibacterial activity against Moraxella catarrhalis 1502 by broth micro dilution technique.
In assay [1] the test system is Haemophilus influenzae. Description: Antibacterial activity against AcrA deficient Haemophilus influenzae H128 by broth micro dilution technique.
Assay [2] has as its system Streptococcus pyogenes. The assay is described as follows: Antibacterial activity against Streptococcus pyogenes 1308007P by broth micro dilution technique.
Assay [3] deals with Staphylococcus aureus. The assay is described as follows: Antibacterial activity against Staphylococcus aureus ATCC 25923 by broth micro dilution technique.
Another assay concerns Escherichia coli. The assay is described as follows: Antibacterial activity against Escherichia coli by broth micro dilution technique.
In assay [4] the test system is Haemophilus influenzae. Description: Antibacterial activity against Haemophilus influenzae H128 by broth micro dilution technique.
Assay [5] deals with Staphylococcus aureus. The assay is described as follows: Antibacterial activity against Staphylococcus aureus OXFORD by broth micro dilution technique.
For assay [6], the system named is Haemophilus influenzae. Description: Antibacterial activity against Haemophilus influenzae Q1 by broth micro dilution technique.
Assay [7] relates to Staphylococcus aureus. Description: Antibacterial activity against Staphylococcus aureus WCUH29 by broth micro dilution technique.
Assay [8] concerns Staphylococcus epidermidis. Description: Antibacterial activity against methicillin-resistant Staphylococcus epidermidis ATCC 12228 by broth micro dilution technique.
Assay [9] concerns Staphylococcus aureus. The assay is described as follows: Antibacterial activity against methicillin-resistant Staphylococcus aureus ATCC 43300 by broth micro dilution technique.
For another assay, the system named is Enterococcus faecium. Description: Antibacterial activity against Enterococcus faecium X7501 by broth micro dilution technique.
Assay [10] relates to Streptococcus pneumoniae. Description: Antibacterial activity against Streptococcus pneumoniae ERY2 by broth micro dilution technique.
In assay [11] the test system is Staphylococcus aureus. Description: Antibacterial activity against methicillin-susceptible Staphylococcus aureus ATCC 29213 by broth micro dilution technique.
In assay [12] the test system is Streptococcus pneumoniae. Description: Antibacterial activity against Streptococcus pneumoniae 1629 by broth micro dilution technique.
The subject of another assay is Enterococcus faecalis. Description: Antibacterial activity against Enterococcus faecalis by broth micro dilution technique.
For assay [13], the system named is Streptococcus pneumoniae. Description: Antibacterial activity against Streptococcus pneumoniae N1387 by broth micro dilution technique.
For assay [14], the system named is Streptococcus pyogenes. Description: Antibacterial activity against Streptococcus pyogenes 1307006P by broth micro dilution technique.
In assay [15] the test system is Haemophilus influenzae. Description: Antibacterial activity against Haemophilus influenzae by agar dilution method. (In agar dilution, organisms are placed on agar that contains the substance at set levels.)
Assay [16] has as its system Staphylococcus epidermidis. Description: Antibacterial activity against methicillin-resistant Staphylococcus epidermidis by agar dilution method.
The subject of assay [17] is Staphylococcus epidermidis. The assay is described as follows: Antibacterial activity against methicillin-susceptible Staphylococcus epidermidis by agar dilution method.
For assay [18], the system named is Staphylococcus aureus. Description: Antibacterial activity against methicillin-susceptible Staphylococcus aureus by agar dilution method.
The subject of assay [19] is Streptococcus pneumoniae. The assay is described as follows: Antibacterial activity against penicillin-susceptible Streptococcus pneumoniae by agar dilution method.
Assay [20] concerns Staphylococcus aureus. Description: Antibacterial activity against methicillin-resistant Staphylococcus aureus by agar dilution method.
Assay [21] concerns Streptococcus pneumoniae. Description: Antibacterial activity against penicillin-resistant Streptococcus pneumoniae by agar dilution method.

`C=C1C[C@@H](C(=O)Nc2ccc(F)cn2)N(C(=O)[C@H](CCCC)CN(O)C=O)C1`: the MIC in the assay with Moraxella catarrhalis was 0.25 mg/L (≈ 0.637 µM); in the assay on Haemophilus influenzae [1], 0.5 mg/L (≈ 1.27 µM); with Streptococcus pyogenes [2], 4 mg/L (≈ 10.2 µM); with Staphylococcus aureus [3] it was 1 mg/L (≈ 2.55 µM); against Escherichia coli, greater than 64 mg/L; against Haemophilus influenzae [4], 16 mg/L (≈ 40.8 µM). For the same compound, the MIC in the assay with Staphylococcus aureus [5] amounted to 4 mg/L (≈ 10.2 µM); against Haemophilus influenzae [6], 16 mg/L (≈ 40.8 µM); in the assay with Staphylococcus aureus [7], 0.5 mg/L (≈ 1.27 µM); in [8] it was 0.5 mg/L (≈ 1.27 µM); in the assay on Staphylococcus aureus [9], 0.125 mg/L (≈ 0.319 µM); against Enterococcus faecium it was 4 mg/L (≈ 10.2 µM). The MIC was 8 mg/L (≈ 20.4 µM) with Streptococcus pneumoniae [10]; 2 mg/L (≈ 5.1 µM) in the assay on Staphylococcus aureus [11]; 16 mg/L (≈ 40.8 µM) in the assay with Streptococcus pneumoniae [12]; 32 mg/L (≈ 81.5 µM) in the assay with Enterococcus faecalis; 4 mg/L (≈ 10.2 µM) against Streptococcus pneumoniae [13]; 4 mg/L (≈ 10.2 µM) against Streptococcus pyogenes [14].
For `CCCC[C@H](CN(O)C=O)C(=O)N1CCC[C@H]1C(=O)Nc1ccc(F)c[n+]1[O-]`, the MIC in the assay with Staphylococcus aureus [3] was 0.5 mg/L (≈ 1.26 µM); in the assay on Haemophilus influenzae [15] it was 2 mg/L (≈ 5.05 µM); in [16], 0.125 mg/L (≈ 0.315 µM); in assay [17] it was 0.5 mg/L (≈ 1.26 µM); against Staphylococcus aureus [18], 0.5 mg/L (≈ 1.26 µM); in [8] it was 1 mg/L (≈ 2.52 µM). Moreover, the MIC in the assay with Staphylococcus aureus [9] is 0.5 mg/L (≈ 1.26 µM); against Streptococcus pneumoniae [19], 0.125 mg/L (≈ 0.315 µM); in the assay on Staphylococcus aureus [20], 0.125 mg/L (≈ 0.315 µM); against Staphylococcus aureus [11], 2 mg/L (≈ 5.05 µM); against Streptococcus pneumoniae [21], 0.5 mg/L (≈ 1.26 µM).
For the compound `O=C(O)c1cn(C2CC2)c2cc(N3CCNCC3)c(F)cc2c1=O` [CIPROFLOXACIN], the MIC was determined as 0.5 mg/L (≈ 1.51 µM) in the assay on Staphylococcus aureus [3]; 0.125 mg/L (≈ 0.377 µM) in the assay with Haemophilus influenzae [15]; 1 mg/L (≈ 3.02 µM) in assay [16]; 0.25 mg/L (≈ 0.754 µM) in assay [17]; 1 mg/L (≈ 3.02 µM) with Staphylococcus aureus [18]; 0.25 mg/L (≈ 0.754 µM) in assay [8]. Further, the MIC in the assay with Staphylococcus aureus [9] is 1 mg/L (≈ 3.02 µM); with Streptococcus pneumoniae [19], 2 mg/L (≈ 6.04 µM); in the assay on Staphylococcus aureus [20] it was 1 mg/L (≈ 3.02 µM); in the assay with Staphylococcus aureus [11], 0.5 mg/L (≈ 1.51 µM).
For `C=C1C[C@@H](C(=O)Nc2ccc(F)c[n+]2[O-])N(C(=O)[C@H](CCCC)CN(O)C=O)C1`, the MIC against Staphylococcus aureus [3] is 2 mg/L (≈ 4.9 µM); in assay [8] it was 2 mg/L (≈ 4.9 µM); with Staphylococcus aureus [9], 1 mg/L (≈ 2.45 µM); against Staphylococcus aureus [11], 4 mg/L (≈ 9.79 µM).
Regarding `C=C1C[C@@H](C(=O)Nc2ccc(F)c[n+]2[O-])N(C(=O)[C@H](CC2CCCC2)CN(O)C=O)C1`, the MIC against Staphylococcus aureus [3] is 0.125 mg/L (≈ 0.288 µM); against Haemophilus influenzae [15], 2 mg/L (≈ 4.6 µM); in assay [16], 0.25 mg/L (≈ 0.575 µM); in assay [17], 0.125 mg/L (≈ 0.288 µM); against Staphylococcus aureus [18], 0.5 mg/L (≈ 1.15 µM); in [8] it was 0.5 mg/L (≈ 1.15 µM). Besides, the MIC is 0.125 mg/L (≈ 0.288 µM) against Staphylococcus aureus [9]; 0.25 mg/L (≈ 0.575 µM) in the assay on Streptococcus pneumoniae [19]; 0.125 mg/L (≈ 0.288 µM) with Staphylococcus aureus [20]; 2 mg/L (≈ 4.6 µM) in the assay on Staphylococcus aureus [11]; 0.0625 mg/L (≈ 0.144 µM) with Streptococcus pneumoniae [21].
Consider `C=C1C[C@@H](C(=O)Nc2ccc(F)cc2)N(C(=O)[C@H](CC2CCCC2)CN(O)C=O)C1`, for which the MIC against Staphylococcus aureus [3] was 1 mg/L (≈ 2.4 µM); with Haemophilus influenzae [15], 4 mg/L (≈ 9.58 µM); in [16], 0.25 mg/L (≈ 0.599 µM); in [17], 0.5 mg/L (≈ 1.2 µM); against Staphylococcus aureus [18], 1 mg/L (≈ 2.4 µM); in [8], 1 mg/L (≈ 2.4 µM). The MIC with Staphylococcus aureus [9] is 0.5 mg/L (≈ 1.2 µM); in the assay with Streptococcus pneumoniae [19] it was 0.25 mg/L (≈ 0.599 µM); against Staphylococcus aureus [20], 0.25 mg/L (≈ 0.599 µM); against Staphylococcus aureus [11] it was 2 mg/L (≈ 4.79 µM); with Streptococcus pneumoniae [21], 0.25 mg/L (≈ 0.599 µM).
For `C=C1C[C@@H](C(=O)N2CCOCC2)N(C(=O)[C@H](CC2CCCC2)CN(O)C=O)C1`, the MIC worked out at 4 mg/L (≈ 10.2 µM) against Staphylococcus aureus [3], 4 mg/L (≈ 10.2 µM) in [8], 2 mg/L (≈ 5.08 µM) against Staphylococcus aureus [9] and 8 mg/L (≈ 20.3 µM) with Staphylococcus aureus [11].
`C=C1C[C@@H](C(=O)NC2CC2)N(C(=O)[C@H](CC2CCCC2)CN(O)C=O)C1`: the MIC in the assay with Staphylococcus aureus [3] amounted to 4 mg/L (≈ 11 µM); in the assay on Haemophilus influenzae [15], 4 mg/L (≈ 11 µM); in assay [16], 4 mg/L (≈ 11 µM); in [17], 1 mg/L (≈ 2.75 µM); with Staphylococcus aureus [18], 2 mg/L (≈ 5.5 µM); in [8], 4 mg/L (≈ 11 µM). The MIC against Staphylococcus aureus [9] came to 1 mg/L (≈ 2.75 µM); in the assay with Streptococcus pneumoniae [19], 1 mg/L (≈ 2.75 µM); against Staphylococcus aureus [20], 0.5 mg/L (≈ 1.38 µM); with Staphylococcus aureus [11], 8 mg/L (≈ 22 µM); against Streptococcus pneumoniae [21], 1 mg/L (≈ 2.75 µM).
On to `C=C1C[C@@H](C(=O)Nc2ccc(F)cn2)N(C(=O)[C@H](CC2CCCC2)CN(O)C=O)C1`, for which the MIC against Staphylococcus aureus [3] is 0.5 mg/L (≈ 1.19 µM); in the assay on Haemophilus influenzae [15], 2 mg/L (≈ 4.78 µM); in [16] it was 0.5 mg/L (≈ 1.19 µM); in [17], 0.5 mg/L (≈ 1.19 µM); against Staphylococcus aureus [18], 0.5 mg/L (≈ 1.19 µM); in assay [8] it was 0.125 mg/L (≈ 0.299 µM). The MIC was determined as 0.0625 mg/L (≈ 0.149 µM) in the assay on Staphylococcus aureus [9]; 0.25 mg/L (≈ 0.597 µM) in the assay with Streptococcus pneumoniae [19]; 0.25 mg/L (≈ 0.597 µM) in the assay with Staphylococcus aureus [20]; 1 mg/L (≈ 2.39 µM) against Staphylococcus aureus [11]; 0.25 mg/L (≈ 0.597 µM) in the assay on Streptococcus pneumoniae [21].
As for `CC(=O)NC[C@H]1CN(c2ccc(N3CCOCC3)c(F)c2)C(=O)O1` [LINEZOLID], the MIC in [16] was 1 mg/L (≈ 2.96 µM); in [17], 1 mg/L (≈ 2.96 µM); against Staphylococcus aureus [18] it was 1 mg/L (≈ 2.96 µM); in assay [8], 0.5 mg/L (≈ 1.48 µM); in the assay on Staphylococcus aureus [20] it was 0.5 mg/L (≈ 1.48 µM).
